Read-outs that look alike come from different tables or passages of the source.

The values below come from patent US20210059955A1, “SYSTEMS AND METHODS FOR DECRYSTALLIZATION OF URIC ACID” (RL Patents, LLC, priority 2019, published 2021).

One assay relates to uric acid serum levels. Particulars: test subject A; for Uric acid serum level: saturated sodium bicarbonate water bath 38° C., twice a day 60 minutes. The procedure:
(§1) The method of the experiment includes test subject A submerging an affected joint into a warm bath containing water and sodium bicarbonate. The heat was used to facilitate opening of skin pores to facilitate absorption of the active ingredient or agent. […] Control subject B submerged their affected foot into a pure water bath without any other substance or compound at 38° C. for twice a day for durations of 60 minutes, and for a total of six months. […] A phlebotomist drew a vial of blood from each subject's arm, and the samples were processed by an analyzer, model AU480, by Beckman Coulter.
(§2) Both test subject A and control subject B were diagnosed of hyperuricemia based on personal and clinical assessments, such as, e.g., multiple previous acute gout attacks, presence of swelling and tophi at the affected joint, and measured uric acid serum levels above […]. Both test subject A and control subject B were not on any medication at the time of the experiment, and maintained a low-purine diet, such as, e.g., primarily fruits, vegetables, and bread.

The conditions of assay [1]: test subject A, over the six-month experiment. How it is done:
as §1, §2

As for `O=C([O-])O.[Na+]` [sodium bicarbonate], the “Overall course of uric acid content” value with uric acid serum levels (over the six-month experiment) is “general decline”. The “Uric acid serum level” value with uric acid serum levels (August 1 2018) worked out at 6.79 mg/dL; with uric acid serum levels (August 15 2018), 6.47 mg/dL; in the assay on uric acid serum levels (December 1 2018), 5.41 mg/dL; in the assay on uric acid serum levels (December 15 2018) it was 5.20 mg/dL; in the assay on uric acid serum levels (July 1 2018), 6.62 mg/dL; with uric acid serum levels (July 15 2018), 6.58 mg/dL. Further, the “Uric acid serum level” value with uric acid serum levels (June 1 2018) came out at 6.99 mg/dL; in the assay with uric acid serum levels (June 15 2018) it was 7.15 mg/dL; in the assay with uric acid serum levels (November 1 2018), 5.37 mg/dL; in the assay on uric acid serum levels (November 15 2018) it was 5.34 mg/dL; in the assay with uric acid serum levels (October 1 2018) it was 5.47 mg/dL; in the assay on uric acid serum levels (October 15 2018), 5.40 mg/dL. For the same compound, the “Uric acid serum level” value with uric acid serum levels (September 1 2018) is on record as 5.98 mg/dL; in the assay on uric acid serum levels (September 15 2018), 5.59 mg/dL. Moreover, in assay [1], the “Tophi by visual inspection” value is recorded as “no longer visible”.
